# Assay results reported in patent US12070464B2, “Methods of treating myeloproliferative disorders” (priority 2019, dated 2024).
# Tests used:
# [1] = tested on: patients with myelofibrosis; test: Initial human clinical data set, four patients (combination and monotherapy arms); assay type: in vivo
# Source text: Two myelofibrosis patients to enroll (Patients 245 and 246) received Compound 1 in combination with ruxolitinib and received 18 treatment cycles (11 months of treatment). The other two patients to enroll (Patients 247 and 248) received 10 cycles of Compound 1 as monotherapy (6 months of treatment). […] One of the patients who was transfusion dependent at study entry became transfusion independent (defined as >12 weeks without the need for a red blood cell (RBC) transfusion. Indeed, 7 months had elapsed since their last transfusion.
# All four patients experienced an increase in their hemoglobin levels with multiple treatment cycles with Compound 1. In addition, one of the patients who entered the study with uncontrolled thrombocytosis (baseline platelets were 895×10^9/L) experienced a normalization of their platelet counts within the first month of monotherapy treatment with Compound 1. The patient's platelet counts remained normal for more than 20 weeks. This patient's thrombocytosis was also accompanied by severe headaches requiring multiple hospital admission. Following treatment with Compound 1, however, the patient's headaches were resolved. Brief narratives for all four patients treated for at least 6 months are presented below.
# At entry into the study with Compound 1, their spleen volume by MRI was 1404 cc and was 12 cm by palpation. The patient presented with early satiety, night sweats, and dyspnea at the start of the study. […] The lowest spleen volume by MRI was 1144 cc, a 19% reduction, at the 6-month MM. The dose of ruxolitinib was reduced on Cycle 10 to 7.5 mg BID to address decreasing platelet count.
# When Patient 246 initiated combination treatment with Compound 1 125 mg QD and ruxolitinib 10 mg BID their spleen volume was 607 cc by MRI and 2 cm by palpation and they required regular transfusions (2 units of RBC every 3-4 weeks).
# The patient also presented with uncontrolled thrombocytosis at study entry (platelet count of 895×10^9/L at baseline) despite hydroxyurea. In addition, the patient had experienced persistent and debilitating headaches that required multiple hospital admissions for pain control. Their platelets were normalized after receiving their first two weeks of Compound 1 monotherapy (183 x10^9/L) and have remained within the normal range for the remainder of the time they have been on study (see FIG. 6). Within 2 months on Compound 1 monotherapy, the patient's severe headaches had resolved; their night sweats were less frequent; and a 37% reduction in symptoms was assessed by the Myeloproliferative Neoplasm Symptom (MNS) score. Their ECOG performance score decreased from 2 to 1 after two treatment cycles with CPI-0610 and a 25% decrease in spleen volume (640 cc) was assessed by MRI after 8 treatment cycles, the most recent measurement.
# Their constitutional symptoms at study entry included fatigue, early satiety, and difficulty concentrating. […] The patient was reinitiated with a reduced Compound 1 dose of 175 mg at the beginning of Cycle 2, which has been tolerated for the remaining time on study (>6 months). While the patient's spleen has shown minimal change through palpation a spleen volume reduction of 11% (1023 cc) was measured by MRI after 3 months on treatment with Compound 1. Their MNS score improved 19% after 2 months on the 175 mg QD dose and after 6 months of Compound 1 treatment their bone marrow fibrosis grade decreased from MF-2 at baseline to MF-1 based on a local pathologist's assessment.
# [2] = tested on: JAK inhibitor treatment naive myelofibrosis patients; assay type: in vivo, human
# Protocol: A Phase 2 study of Compound 1 in subjects with myelofibrosis (MF) was conducted. Three treatment arms were studied:
# Arm 3—combination treatment with Compound 1 and Rux in patients (pts) who have not previously been administered a JAK inhibitor, i.e., JAK inhibitor treatment naive. In this arm, key eligibility criteria of included JAKi naive myelofibrosis (MF) patients (pts) with Dynamic International Prognostic Scoring (DIPSS) score int-1 or higher, ECOG performance status ≤2, platelet counts (PLT) ≥100×109/L, peripheral blood blast count <10%, anemia (hemoglobin <10 g/dL), ≥5 cm palpable spleen, ≥2 symptoms measurable (score ≥3) or a total symptom score (c using the MFSAF v4.0. Primary endpoint: spleen volume response (SVR); key secondary endpoints: change in TSS, safety and PK; additional endpoints: changes in proinflammatory cytokine (Ck) levels, BM morphology and mutant allele burden.
# The starting dose of Compound 1 was 125 mg given orally, once daily for 2 weeks on/1 week off in a 21-day dosing cycle. Two separate time points for data analysis occurred for at least Arms 1 and 2 and are discussed below: one at approximately 12 weeks of treatment (first assessment of spleen volume by MRI or CT and every 12 weeks thereafter) and another at approximately 24 weeks of treatment (first assessment of bone marrow biopsy and every 24 weeks thereafter). Patients were added to the study following the first time point.
# Demographics and results are as follows: Baseline median age: 71 years (52-76), gender: 8 male (72.7%), ECOG ≤1: 10 (90.9%) patients, primary MF: 8 (72.7%) patients, DIPSS score: int-1/int-2/high: 2/7/2 patients, median platelet: 368×109/L (112-951), 9 (81.8%) patients with hemoglobin <10 g/dL, median spleen volume: 1379 cc (580-2807), median TSS: 11.8 (4.1-17), driver mutations: 11 (100%) with ≥1 JAK2/MPL/CALR mutations, HMR (high molecular risk) mutations: 6 […] patients, and ≥3 mutations: 4 (36%) patients. […] See FIG. 9, where * is data post cut off-date.
# [3] = expanded population n=15, at least 12 weeks, FIG. 16
smiles,measurement,setting,value
"Cc1noc2c1-c1ccccc1C(c1ccc(Cl)cc1)=N[C@H]2CC(N)=O [Compound 1, 2-((4S)-6-(4-chlorophenyl)-1-methyl-4H-benzo[c]isoxazolo[4,5-e]azepin-4-yl)acetamide]",spleen volume reduction,"[1]; Patient 245, 6-month MRI, with ruxolitinib",19%
same,lowest spleen volume by MRI,"[1]; Patient 245, 6-month MRI, with ruxolitinib, 1404 cc at entry",1144 cc
same,spleen size,"[1]; Patient 245, after 4 weeks of therapy with Compound 1 and ruxolitinib, 12 cm before",5 cm
same,spleen by palpation,"[1]; Patient 245, within 4 months, Compound 1 125 mg QD and ruxolitinib 15 mg BID, 12 cm at entry",5 cm
same,time to transfusion independence,"[1]; Patient 246, Compound 1 125 mg QD titrated to 175 mg QD and ruxolitinib 10 mg BID, TI = >12 weeks without transfusion and hemoglobin >8 g/dL",≤ 7 months
same,reduction in spleen volume,"[1]; Patient 246, by Cycle 12, with ruxolitinib",37%
same,spleen volume,"[1]; Patient 246, by Cycle 12, with ruxolitinib, 607 cc at start",380 cc
same,most recent hemoglobin measurement,"[1]; Patient 246, with ruxolitinib",10.9 g/dL
same,decrease in spleen volume by MRI,"[1]; Patient 247, after 8 treatment cycles, monotherapy",25%
same,spleen volume by MRI,"[1]; Patient 247, after 8 treatment cycles, monotherapy, 858 cc at entry",640 cc
same,platelets,"[1]; Patient 247, after first two weeks of monotherapy, 895×10^9/L at baseline",1.83e+11 L⁻¹
same,ECOG performance score,"[1]; Patient 247, after two treatment cycles, from 2, monotherapy",1
same,reduction in symptoms by Myeloproliferative Neoplasm Symptom (MNS) score,"[1]; Patient 247, within 2 months, monotherapy",37%
same,time reduced dose has been tolerated,"[1]; Patient 248, 175 mg from Cycle 2",> 6 months
same,MNS score improvement,"[1]; Patient 248, after 2 months on 175 mg QD",19%
same,spleen volume reduction by MRI,"[1]; Patient 248, after 3 months, monotherapy",11%
same,spleen volume by MRI,"[1]; Patient 248, after 3 months, monotherapy, 1148 cc at entry",1023 cc
same,hemoglobin level after treatment,"[1]; from about 8 g/dl, FIG. 5",about 10.9 g/dl
same,tolerability of starting dose,"[1]; human, in vivo",did not tolerate
same,time elapsed since last transfusion,[1]; patient who was transfusion dependent at study entry,7 months
same,time platelet counts remained normal,"[1]; patient with uncontrolled thrombocytosis (Patient 247), monotherapy",more than 20 weeks
same,hemoglobin level after treatment,"[1]; patients 247 and 248, from about 8 g/dL",about 11.5 g/dL
same,patients achieving ≥50% improvement in TSS,"[2]; 4 patients on treatment for ≥12 weeks, with ruxolitinib",100%
same,patients achieving ≥35% spleen volume reduction,"[2]; 4 patients on treatment for ≥12 weeks, with ruxolitinib, FIG. 9",100%
same,patients who had a TSS of ≥10,"[2]; expanded population n=15, FIG. 17",about 71%
same,patients with overall improvement in PGIC,"[2]; expanded population n=15, FIG. 18",About 80%
same,"SVR, average",[2]; [3],about −49.7%
same,patients achieving ≥35% SVR,[2]; [3],About 80%
same,DLTs and grade ≥3 thrombocytopenia,"[2]; human, in vivo",no DLTs or grade ≥3 thrombocytopenia
same,most common TEAE observed in ≥2 patients,"[2]; human, in vivo","anemia (1 grade 3), fatigue (all ≤grade 2), and non-cumulative reversible thrombocytopenia (all ≤grade 2)"
